Source: US11873320B2 (REATA PHARMACEUTICALS HOLDINGS, LLC, priority 2013, dated 2024)
Where two headings read alike, the source gives them in different places.

What was measured:
RAW264.7 cells = assay: WST-1 cell viability, RAW264.7; format: cell-based; settings: Mus musculus
Procedure: Inhibition of IFNγ-induced NO production by AIMs is Nrf2-dependent (Dinkova-Kostova, 2005). […] Nitrite (NO2^−) levels in the media were measured as a surrogate for nitric oxide using the Griess reagent assay. Cell viability was assessed using the WST-1 assay. […] 63170, 63171, 63179, and 63189 are compounds of the formulas: […]

CYP1A2 = assay: CYP450 induction in cultured human hepatocytes: CYP1A2; format: in vitro ADME; settings: up to 3 μM
transaminase mRNA levels = assay: transaminase gene expression in AML-12 hepatocytes; format: cell-based, mouse; settings: 250 nM or 500 nM, 18 hours
Source text: One hypothesis for this effect is that AIMs directly or indirectly increase transaminase gene expression in the absence of cellular toxicity.

[1] = test system: LPS-induced pulmonary inflammation
[2] = test system: LPS-induced pulmonary inflammation; assay: LPS-induced pulmonary inflammation in mice, first study (QD×3); format: in vivo, mouse
Procedure: Animals were sacrificed 20 hours after LPS administration. BALF was examined for pro-inflammatory cytokine expression.

CD rats = assay: neurobehavioral evaluation in rats (FOB); format: in vivo, rat
Procedure: One additional group of 10 animals/sex served as the control and received vehicle (sesame oil).
Observations for morbidity, mortality, injury, and availability of food and water were conducted twice daily for all animals. Observations for clinical signs were conducted prior to dosing on Day 1 and following each functional observational battery (FOB) evaluation. FOB evaluations were conducted pre-dose (Day −1) and at approximately 4 and 24 hours post-dose. Body weights were measured and recorded pre-dose on Day 1.

NQO1 protein = assay: Nrf2 target protein levels in SH-SY5Y cells; format: cell-based, human; settings: dose-dependent
Procedure: HMOX1 protein was not detected in untreated or RTA 408-treated SH-SY5Y cells. […] The same amount of 63170 (54.6 nM) was required.

glutathione levels = assay: induction of glutathione levels, RAW264.7 mouse model; format: cell-based
Source text: Glutathione and NADPH are critical factors required for the maintenance of cellular redox capacity. […] Data shown are representative of two independent experiments.

C2C12 muscle cells = assay: glycolytic intermediates in C2C12 myotubes; format: cell-based, rodent
cynomolgus monkeys [3] = assay: cardiovascular evaluation in conscious cynomolgus monkeys (telemetry); format: in vivo, monkey
Procedure: Animals were instrumented with telemetry transmitters for measurement of body temperature, blood pressure, heart rate, and electrocardiogram (ECG) evaluation. Body temperature, systolic, diastolic, and mean arterial blood pressure, heart rate, and ECG parameters (QRS duration and RR, PR, and QT intervals) were monitored continuously from at least 2 hours pre-dose until at least 24 hours post-dose. ECG tracings were printed at designated time points from the cardiovascular monitoring data and were qualitatively evaluated by a board-certified veterinary cardiologist.
Observations for morbidity, mortality, injury, and availability of food and water were conducted at least twice daily for all animals. Clinical observations were conducted pre-dose, approximately 4 hours post-dose, and following completion of the cardiovascular monitoring period. Body weights were measured and recorded on the day prior to each treatment administration.

cynomolgus monkeys [4] = settings: for ALP (U/L) / ALT (U/L) / AST (U/L) / Albumin / BUN / Chol / Cr / Glucose / TG / Tot Bil / Tot Prot: Day 14
[5] = test system: fractionated radiation dermatitis; assay: fractionated radiation dermatitis model, Balb/c mice; format: in vivo, mouse; settings: 0.1 to 1% topical formulations
Procedure: The mice were irradiated on days 0-2 and 5-7 with six 10-Gy doses […]. Clinical dermatitis scores for the mice were evaluated blindly every two days from day 4 until the end of the study. […] Study and treatment parameters can be found in Table 6.
By analyzing the average clinical scores that were shown in FIG. 43, an area under the curve (AUC) analysis was performed, which yielded the severity of the dermatitis relative to how long the dermatitis persisted.

MRP-1 = MRP-1 (Homo sapiens, UniProt P33527); assay: in vitro efflux by MRP-1; settings: not told
[6] = oral pharmacokinetics, statements pooled over mice, rats and monkeys; format: in vivo

Sequence of MRP-1 (P33527 whole entry): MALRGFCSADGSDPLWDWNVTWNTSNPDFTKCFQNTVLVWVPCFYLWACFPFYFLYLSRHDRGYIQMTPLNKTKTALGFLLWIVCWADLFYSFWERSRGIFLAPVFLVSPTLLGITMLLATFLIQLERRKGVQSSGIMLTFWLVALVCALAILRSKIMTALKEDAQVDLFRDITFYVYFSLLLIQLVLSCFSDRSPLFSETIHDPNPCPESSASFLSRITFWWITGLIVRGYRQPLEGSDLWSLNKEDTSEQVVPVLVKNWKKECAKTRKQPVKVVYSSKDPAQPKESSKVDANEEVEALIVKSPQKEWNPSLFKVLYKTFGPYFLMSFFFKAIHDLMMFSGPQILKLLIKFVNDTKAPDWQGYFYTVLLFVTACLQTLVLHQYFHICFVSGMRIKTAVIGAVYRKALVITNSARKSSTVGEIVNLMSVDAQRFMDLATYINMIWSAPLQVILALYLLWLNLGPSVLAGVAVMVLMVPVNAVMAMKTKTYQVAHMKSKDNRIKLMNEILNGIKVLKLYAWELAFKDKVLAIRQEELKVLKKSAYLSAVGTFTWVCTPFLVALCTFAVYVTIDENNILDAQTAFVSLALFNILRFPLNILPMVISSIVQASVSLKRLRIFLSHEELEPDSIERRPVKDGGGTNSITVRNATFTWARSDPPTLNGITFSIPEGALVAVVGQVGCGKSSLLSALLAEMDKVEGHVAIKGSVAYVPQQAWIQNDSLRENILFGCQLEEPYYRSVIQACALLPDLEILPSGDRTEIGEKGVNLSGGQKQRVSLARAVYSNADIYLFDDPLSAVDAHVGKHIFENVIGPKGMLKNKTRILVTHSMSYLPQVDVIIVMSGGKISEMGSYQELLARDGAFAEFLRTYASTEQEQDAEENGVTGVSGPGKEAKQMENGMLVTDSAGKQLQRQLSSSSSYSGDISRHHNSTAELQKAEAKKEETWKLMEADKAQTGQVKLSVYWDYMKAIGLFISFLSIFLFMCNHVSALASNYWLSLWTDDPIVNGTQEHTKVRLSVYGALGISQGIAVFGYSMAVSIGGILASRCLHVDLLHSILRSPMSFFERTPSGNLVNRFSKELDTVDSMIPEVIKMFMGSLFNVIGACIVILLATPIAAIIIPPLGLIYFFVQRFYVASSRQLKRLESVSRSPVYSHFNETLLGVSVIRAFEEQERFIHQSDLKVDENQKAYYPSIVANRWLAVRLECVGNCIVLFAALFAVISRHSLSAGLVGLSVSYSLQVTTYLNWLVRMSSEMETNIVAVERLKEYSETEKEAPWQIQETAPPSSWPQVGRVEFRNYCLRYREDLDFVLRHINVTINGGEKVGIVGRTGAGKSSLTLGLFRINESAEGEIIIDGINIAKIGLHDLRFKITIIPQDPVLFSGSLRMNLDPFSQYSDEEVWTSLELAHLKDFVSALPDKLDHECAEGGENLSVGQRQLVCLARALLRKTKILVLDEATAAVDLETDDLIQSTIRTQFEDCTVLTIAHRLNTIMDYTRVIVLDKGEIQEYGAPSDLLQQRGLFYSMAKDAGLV

## CC1(C)CC[C@]2(NC(=O)C(C)(F)F)CC[C@]3(C)[C@H](C(=O)C=C4[C@@]5(C)C=C(C#N)C(=O)C(C)(C)[C@@H]5CC[C@]43C)[C@@H]2C1 [RTA 408, N-((4aS,6aR,6bS,8aR,12aS,14aR,14bS)-11-cyano-2,2,6a,6b,9,9,12a-heptamethyl-10,14-dioxo-1,2,3,4,4a,5,6,6a,6b,7,8,8a,9,10,12a,14,14a,14b-octadecahydropicen-4a-yl)-2,2-difluoropropanamide]
RAW264.7 cells
  IC50: 125 nM
CYP1A2
  induction of enzyme activity: not an inducer
Transaminase mRNA levels
  alanine transaminase 1 (Alt1 or Gpt1) mRNA: increased mRNA levels
  alanine transaminase 2 (Alt2 or Gpt2) mRNA: no effect
  aspartate transaminase 1 (Ast1 or Got1) mRNA: increased mRNA levels
  aspartate transaminase 2 (Ast2 or Got2) mRNA: reduced mRNA levels
[1]; 10 mg/kg
  TNFα in BALF: Significant reductions
[1]; 30 mg/kg
  IL-12p40, TNFα, and RANTES in BALF: significant reductions
[1]; 10 and 30 mg/kg
  lung NQO1 enzyme activity and total GSH: significant induction of NQO1 enzyme activity and increases in total GSH
[2]; 100 and 150 mg/kg doses
  TNFα in BALF: significant reduction
[2]; all doses (30, 100, 150 mg/kg)
  IL-12p40 in BALF: significant reduction
CD rats; 30 mg/kg
  body weight gain approximately 24 hours after dosing: Slight decreases in body weight gain
CD rats; doses up to and including 30 mg/kg, single oral dose
  basic neurobehavioral endpoints: did not produce any adverse effects
NQO1 protein
  NQO1 protein levels: increased NQO1 protein levels
Glutathione levels
  EC50: 9.9 nM
C2C12 muscle cells; 250 nM or 500 nM, 18 hours, P<0.0001
  intracellular pyruvate levels: increased intracellular pyruvate levels
C2C12 muscle cells; 1 μM or 2 μM, 3 hours
  intracellular and extracellular lactate levels: significantly increased intracellular and extracellular lactate levels
Cynomolgus monkeys [3]; 100 mg/kg oral, not considered related to treatment
  increase in the corrected QT interval (average): 1.6%
Cynomolgus monkeys [3]; doses up to and including 100 mg/kg oral
  effects on cardiovascular function: no effects on cardiovascular function
Cynomolgus monkeys [4]; 10 mg/kg
  ALP (U/L): 382 U/L
  ALT (U/L): 46 U/L
  AST (U/L): 38 U/L
  Albumin: 4 g/dL
  BUN: 27 mg/dL
  Chol: 144 mg/dL
  Cr: 0.68 mg/dL
  Glucose: 39 mg/dL
  TG: 82 mg/dL
  Tot Bil: 0.23 mg/dL
  Tot Prot: 7.2 g/dL
Cynomolgus monkeys [4]; 30 mg/kg
  ALP (U/L): 416 U/L
  ALT (U/L): 47 U/L
  AST (U/L): 43 U/L
  Albumin: 4 g/dL
  BUN: 20 mg/dL
  Chol: 122 mg/dL
  Cr: 0.58 mg/dL
  Glucose: 53 mg/dL
  TG: 64 mg/dL
  Tot Bil: 0.2 mg/dL
  Tot Prot: 7.2 g/dL
Cynomolgus monkeys [4]; 100 mg/kg
  ALP (U/L): 390 U/L
  ALT (U/L): 43 U/L
  AST (U/L): 37 U/L
  Albumin: 3.2 g/dL
  BUN: 24 mg/dL
  Chol: 93 mg/dL
  Cr: 0.55 mg/dL
  Glucose: 32 mg/dL
  TG: 61 mg/dL
  Tot Bil: 0.18 mg/dL
  Tot Prot: 6 g/dL
Cynomolgus monkeys [4]; 14 days
  toxicity suggested by clinical chemistry data: no obvious toxicity
Cynomolgus monkeys [4]; PO QD×14
  mRNAs of Nrf2 target genes in liver and lung: induces Nrf2 target genes in monkey tissues
Cynomolgus monkeys [4]; all doses, 14 days
  tolerability: well-tolerated without adverse clinical signs
Cynomolgus monkeys [4]; monkey, in vivo
  Nrf2 target enzyme activity (NQO1, GSR) in various tissues: induces Nrf2 target enzyme activity
[5]
  average clinical dermatitis scores over time: statistically significant improvement in the scores
MRP-1
  MRP-1 substrate status: not a substrate of MRP-1
[6]; 3 to 100 mg/kg, suspension
  dose dependence of systemic exposure: dose-proportional increases in systemic exposure
[6]; 100 to 800 mg/kg in monkeys, 500 to 2000 mg/kg in rats
  exposure at higher doses: saturation of absorption at doses above 100 mg/kg
[6]; in vivo
  systemic exposure by sex: generally similar in males and females
[6]; in vivo, po
  exposure after repeated daily oral administration vs single dose: ≤ 2 fold
